Source: patent publication US6211200A, “Metal complexes” (SmithKline Beecham Corporation, priority 1998, dated 2001)
Blank lines part the entries; values can stand above or below the molecule they belong to.

How the values were obtained:
G-CSF receptor [1] = target: T1, G-CSF receptor (Mus musculus, UniProt P40223); test: Luciferase reporter gene assay in G-CSF-responsive NFS60 cells; assay type: cell-based, murine; conditions: for activation in the luciferase assay: concentration range of 1 to 100 micromolar
T1 construct: they express endogenous G-CSF receptors; endogenous in cells; host or cells: NFS60 (murine myeloid cell line) containing a G-CSF-responsive element / luciferase reporter
T1 sequence (P40223 26-837): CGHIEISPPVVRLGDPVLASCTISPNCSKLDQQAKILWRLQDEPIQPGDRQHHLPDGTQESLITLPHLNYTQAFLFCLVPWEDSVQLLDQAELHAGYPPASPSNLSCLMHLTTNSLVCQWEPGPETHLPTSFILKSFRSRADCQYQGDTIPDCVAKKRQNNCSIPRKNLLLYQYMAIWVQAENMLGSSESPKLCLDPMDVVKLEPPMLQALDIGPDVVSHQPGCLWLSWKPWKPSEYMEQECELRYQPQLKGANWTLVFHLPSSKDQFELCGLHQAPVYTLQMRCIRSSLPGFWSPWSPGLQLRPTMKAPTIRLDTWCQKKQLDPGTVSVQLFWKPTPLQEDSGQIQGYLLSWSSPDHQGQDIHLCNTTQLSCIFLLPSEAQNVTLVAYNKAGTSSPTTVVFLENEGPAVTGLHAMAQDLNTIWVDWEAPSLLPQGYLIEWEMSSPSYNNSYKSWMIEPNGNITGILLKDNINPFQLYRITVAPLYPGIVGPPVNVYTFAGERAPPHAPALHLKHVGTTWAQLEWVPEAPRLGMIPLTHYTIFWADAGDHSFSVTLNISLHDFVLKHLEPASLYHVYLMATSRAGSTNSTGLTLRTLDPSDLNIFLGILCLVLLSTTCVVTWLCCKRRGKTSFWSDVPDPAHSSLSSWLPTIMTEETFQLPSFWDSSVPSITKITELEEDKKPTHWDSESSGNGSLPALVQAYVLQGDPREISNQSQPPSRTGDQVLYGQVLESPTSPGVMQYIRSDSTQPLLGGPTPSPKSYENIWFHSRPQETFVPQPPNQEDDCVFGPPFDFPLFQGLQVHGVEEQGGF
Method: Activity of compound 1a is below the threshold of 150% over background. The study was performed as a Luciferase assay configured on the G-CSF-responsive NFS60 cell line as described in Tian et al., Science 281, 257-259 (1998). The experiments shown in FIGS. 2-8 used the same NFS60 cell line.
Compounds of the present invention were tested for potency as agonist of the G-CSF receptor in a Luciferase reporter gene assay such as described in Tian et al., Science 281, 257-259 (1998). The NFS60 cells (Holmes, et al., Proc. Natl. Acad. Sci. USA 82:6687-6691 (1985)) were selected because they express endogenous G-CSF receptors closely matching the pattern of STAT (signal transducers and activators of transcription) activation observed in primary murine and human bone marrow cells.

G-CSF receptor [2] = target: T1, G-CSF receptor; test: Luciferase assay in NFS60 cells in the presence of EDTA; assay type: cell-based, murine; conditions: for G-CSF agonist activity in the presence of EDTA (metal ion mediation): FIGS. 3 and 4
Method: The media in this assay contained a small amount (1-5 uM) of zinc(II).
In order to determine the requisiteness of zinc chelation of small organic molecules to agonist activity at the G-CSF receptor, the above luciferase assay was performed in the presence of EDTA.

CFU-G = CFU-G assay; assay type: cell-based, murine; conditions: concentration range of 1 to 100 micromolar
Method: Compounds of this invention are also tested for activity in the following assays: CFU-G assay (an example of which is described in King A. G., Talmadge J., Badger A. M., Pelus L. M. Regulation of colony stimulating activity production from bone marrow stromal cells by the hematoregulatory peptide, HP-5. Exp. Hematol. 20:223-228, 1992) and in vivo evaluation of peripheral blood neutrophil and monocyte count in the mouse (an example of which is described in Pelus, L. M.; King, A. G.; Broxmeyer, H. E.; DeMarsh, P. L.; Petteway, S. R.; Bhatnagar, P. K., In vivo modulation of hematopoiesis by a novel hematoregulatory peptide Exp-Hematol. 1994 22(3):239-47). In order to confirm the requirement for zinc(II) chelation, the above CFU-G assay was also conducted in the presence of EDTA.

[3] = tested on: peripheral blood neutrophil and monocyte count; test: In vivo evaluation of peripheral blood neutrophil and monocyte count; conditions: mouse
Method: Compounds of this invention are also tested for activity in the following assays: CFU-G assay (an example of which is described in King […]., Badger A. M., Pelus L. M. Regulation of colony stimulating activity production from bone marrow stromal cells by the hematoregulatory peptide, HP-5. Exp. […] M.; King, […].; DeMarsh, […]., In vivo modulation of hematopoiesis by a novel hematoregulatory peptide Exp-Hematol. 1994 22(3):239-47).

G-CSF/Fc fusion protein = test: Isothermal titration microcalorimetry; assay type: binding; conditions: in the presence of zinc
Method: Zinc-mediated affinity of compounds from this invention for the G-CSF receptor was measured by isothermal titration microcalorimetry experiments. Titration microcalorimetry detects binding as heat originating from the intrinsic bond forming enthalpy change. […] In a separate experiment, the compounds were then assayed in the presence of zinc and a G-CSF/Fc fusion protein, which contained the extracellular domain of the G-CSF receptor presented in a dimeric form due to the Fc component.

Molecule: [Zn+2].c1ccc(C23NC(=Nc4nc5ccccc5[nH]4)NC2(c2ccccn2)NC(=Nc2nc4ccccc4[nH]2)N3)nc1.c1ccc(C23NC(=Nc4nc5ccccc5[nH]4)NC2(c2ccccn2)NC(=Nc2nc4ccccc4[nH]2)N3)nc1 (stereo not drawn) [Compound 1, Bis{2,5-bis[2-benzimidazolylimino]-3a,6a-bis(2-pyridyl)-1,2,3,3a,4,5,6,6a-octahydroimidazo[4,5-d]imidazole-N,N'}-zinc(II)]
activation in the luciferase assay (G-CSF receptor [1]): above 150 % of control

Molecule: c1ccc(C23NC(=Nc4nc5ccccc5[nH]4)NC2(c2ccccn2)NC(=Nc2nc4ccccc4[nH]2)N3)nc1 (stereo not drawn) [Compound 1a, 2,5-Bis[2-benzimidazolylimino]-3a,6a-bis(2-pyridyl)-1,2,3,3a,4,5,6,6a-octahydroimidazo[4,5-d]imidazole]
effect of EDTA on luciferase activity (G-CSF receptor [2]; EDTA 1.2 millimolar, media contained 1-5 uM zinc(II), FIG. 3): antagonized
G-CSF agonist activity in the presence of EDTA (metal ion mediation) (G-CSF receptor [2]): abrogated
activation in the murine CFU-G assay (CFU-G): above 150 % of control
peripheral blood neutrophil and monocyte count [3]: elevation of peripheral blood neutrophil and monocyte count
luciferase activity (G-CSF agonist activity) (G-CSF receptor [1]; NFS60 cells, absence of zinc, FIG. 1): < 150 % over background
luciferase activity (G-CSF receptor [1]; NFS60 cells, presence of 1 uM zinc (II), FIG. 2): about 350 % over control
activation in the luciferase assay (G-CSF receptor [1]): above 150 % of control
G-CSF agonist efficacy (G-CSF receptor [1]; presence of 1 uM zinc(II), at 1 uM, FIG. 2): 350 % over background
affinity for G-CSF/Fc fusion protein (G-CSF/Fc fusion protein): high, submicromolar affinity

Molecule: zinc (II) [reference compound]
effect of metal chlorides on the EDTA depleted activity of Compound 1a (G-CSF receptor [2]; 50 micromolar EDTA, metal at 0.5-10 micromolar, FIGS. 7 and 8): can overcome the inhibition

Further lines, with some results ahead:

activation in the luciferase assay (G-CSF receptor [1]): above 150 % of control
Molecule: c1ccc(C23NC(=Nc4nc5ccccc5[nH]4)NC2(c2ccccc2)NC(=Nc2nc4ccccc4[nH]2)N3)cc1 (stereo not drawn) [Compound 2a, 2,5-Bis[2-benzimidazolylimino]-3a,6a-diphenyl-1,2,3,3a,4,5,6,6a-octahydroimidazo[4,5-d]imidazole]

activation in the luciferase assay (G-CSF receptor [1]): above 150 % of control
affinity for G-CSF/Fc fusion protein (G-CSF/Fc fusion protein): high, submicromolar affinity
Molecule: Cc1ccc2nc(N=C3NC4(c5ccccn5)NC(=Nc5nc6ccccc6[nH]5)NC4(c4ccccn4)N3)[nH]c2c1.O=C(O)C(F)(F)F.O=C(O)C(F)(F)F (stereo not drawn) [Compound 3a, 5-(2-benzimidazolylimino)-2-[(5-methyl-2-benzimidazolyl)imino]-3a,6a-bis(2-pyridyl)-1,2,3,3a,4,5,6,6a-octahydroimidazo[4,5-d]imidazole bis(trifluoroacetate) salt]
activation in the murine CFU-G assay (CFU-G): above 150 % of control
peripheral blood neutrophil and monocyte count [3]: elevation of peripheral blood neutrophil and monocyte count

effect of EDTA on luciferase activity (G-CSF receptor [2]; EDTA 1.2 and 5 millimolar, FIG. 4): little effect
G-CSF agonist activity in the presence of EDTA (metal ion mediation) (G-CSF receptor [2]): not mediated by metal ions
B1: recombinant G-CSF: natural ligand for the G-CSF receptor (G-CSF or recombinant G-CSF) (protein, UniProt P09919 31-207, looked up)
Granulocyte …: TPLGPASSLPQSFLLKCLEQVRKIQGDGAALQEKLVSECATYKLCHPEELVLLGHSLGIPWAPLSSCPSQALQLAGCLSQLHSGLFLYQGLLQALEGISPELGPTLDTLQLDVADFATTIWQQMEELGMAPALQPTQGAMPAFASAFQRRAGGVLVASHLQSFLEVSYRVLRHLAQP
